Experimental data reported in patent US20260124214A1, “HETEROCYCLIC COMPOUNDS FOR USE IN THE TREATMENT OF CANCER” (ARTIOS PHARMA LIMITED, priority 2021, published 2026).
Structures can show the parent of a compound that is named as a salt.

Target: T1, Human Polθ polymerase domain (aa1820-2590) (Homo sapiens, UniProt O75417)
T1 construct: Human Polθ polymerase domain (aa1820-2590) was expressed in E. Coli; made in house; host or cells: E. coli
T1 sequence (O75417 1820-2590): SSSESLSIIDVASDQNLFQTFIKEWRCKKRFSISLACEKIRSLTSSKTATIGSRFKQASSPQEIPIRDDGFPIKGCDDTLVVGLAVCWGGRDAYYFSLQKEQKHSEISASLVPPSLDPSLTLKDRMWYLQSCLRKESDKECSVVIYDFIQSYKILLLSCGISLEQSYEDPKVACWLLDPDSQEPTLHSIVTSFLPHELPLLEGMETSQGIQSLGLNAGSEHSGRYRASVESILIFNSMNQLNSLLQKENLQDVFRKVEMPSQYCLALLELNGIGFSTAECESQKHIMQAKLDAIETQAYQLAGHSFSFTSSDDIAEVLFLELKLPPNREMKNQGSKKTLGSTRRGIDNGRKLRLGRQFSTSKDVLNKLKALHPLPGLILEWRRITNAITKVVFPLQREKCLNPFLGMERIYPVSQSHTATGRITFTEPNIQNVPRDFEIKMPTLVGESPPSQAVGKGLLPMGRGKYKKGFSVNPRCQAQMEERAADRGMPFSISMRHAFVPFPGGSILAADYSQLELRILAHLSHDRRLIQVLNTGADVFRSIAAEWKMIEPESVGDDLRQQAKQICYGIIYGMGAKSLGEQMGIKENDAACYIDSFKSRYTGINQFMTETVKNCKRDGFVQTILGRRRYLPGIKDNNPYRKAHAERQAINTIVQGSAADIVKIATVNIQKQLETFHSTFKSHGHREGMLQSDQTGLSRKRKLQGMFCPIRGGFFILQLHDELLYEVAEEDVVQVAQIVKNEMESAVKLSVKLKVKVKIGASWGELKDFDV
Test: Polθ Polymerase Domain WT KI Assay (PicoGreen)
Assay type: biochemical
Conditions: 100 nM DNA substrate, 0.156 nM Polθ, initial rates vs inhibitor concentration
Method: A PicoGreen assay was used to measure the KI values of reversible compounds that inhibit the activity of Polθ in vitro.
Human Polθ polymerase domain (aa1820-2590) was expressed in E. Coli, purified, aliquoted and stored at −80° C. until required. Polθ substrate was generated from a 1.2:1 mix of DNA II Short to DNA II Long to give a final concentration of […] substrate in annealing buffer (20 mM Tris pH 7.5, 50 mM NaCl). The substrate was heated in 50 mL aliquots to 95° C. in a heating block for 5 min before the heating block switched off, the reaction left to cool to rt and stored at −20° C. until required.
Assay measurements were performed with 1× buffer comprising 25 mM Tris pH 7.5, 12.5 mM NaCl, […], 5% (v/v) glycerol, 0.01% v/v Triton x-100, 0.1 mg/ml BSA, 1 mM DTT. […] 100 nL of 23×1:1.5-fold serial dilutions and a DMSO only control were dispensed using the Tecan dispenser into Greiner 384 well black low volume plates (product code 784076). DMSO concentration was maintained at 1% of the final assay volume by back filling with DMSO.
To stop the reaction, 5 μL of a solution containing 25 mM Tris-HCl PH 7.5 and 20 mM EDTA was added at […] (t=0, 15, 30, 60, 90, 120, 150, 180 mins) using the Tempest's time delay function. The plates were covered during the time course to prevent evaporation. After completing the assay, 5 μL of detection reagent (25 mM Tris-HCl pH 7.5 and 2.5% (v/v) PicoGreen) was dispensed into the wells using a Tempest liquid handler (Formulatrix) and plates subsequently read on the CLARIOstar Plus (BMG Labtech) using the default optical settings for fluorescein and the auto gain/focus settings.
All data analysis was carried out using GraphPad Prism V.8 (GraphPad Software Inc, San Diego, CA). Time course data for each inhibitor concentration were fitted to the linear regression model in GraphPad Prism. Any time points where the control (DMSO only) reaction was no longer linear were excluded from the analysis. The initial rates (slopes) obtained from the linear regression were then plotted against inhibitor concentration and fitted to an inhibitor vs. response variable slope (four parameter) model on GraphPad Prism to determine the KI values.

| SMILES | Ki |
| --- | --- |
| Cc1cc(C(F)(F)F)cc(N2C(=O)C[C@@H]3CN(CCN(C)CCO)c4c(C)cccc4N(C)C(=O)[C@H]32)n1 [Example 54, (3aR,11aS)-5-(2-((2-Hydroxyethyl)(methyl)amino)ethyl)-6,10-dimethyl-1-(6-methyl-4-(trifluoromethyl)pyridin-2-yl)-1,3a,4,5,10,11a-hexahydro-2H-benzo[b]pyrrolo[2,3-f][1,4]diazocine-2,11(3H)-dione] | 5.56 nM |
| Cc1cc(C(F)(F)F)cc(N2C(=O)C[C@@H]3CN(CCN4CCN(C)CC4)c4c(Cl)cccc4N(C)C(=O)[C@H]32)n1 [Example 7, (3aR,11aS)-6-Chloro-10-methyl-1-(6-methyl-4-(trifluoromethyl)pyridin-2-yl)-5-(2-(4-methylpiperazin-1-yl)ethyl)-1,3a,4,5,10,11a-hexahydro-2H-benzo[b]pyrrolo[2,3-f][1,4]diazocine-2,11(3H)-dione] | 2 nM |
| Cc1cc(C(F)(F)F)cc(N2C(=O)C[C@@H]3CN(CCCN4CCN(C)CC4)c4c(Cl)cccc4N(C)C(=O)[C@H]32)n1 [Example 129, (3aR,11aS)-6-Chloro-10-methyl-1-(6-methyl-4-(trifluoromethyl)pyridin-2-yl)-5-(3-(4-methylpiperazin-1-yl)propyl)-1,3a,4,5,10,11a-hexahydro-2H-benzo[b]pyrrolo[2,3-f][1,4]diazocine-2,11(3H)-dione] | 1.23 nM |
| Cc1cc(C(F)(F)F)cc(N2C(=O)C[C@@H]3CN(CCN4CCN(C)[C@H](CO)C4)c4c(C)cccc4N(C)C(=O)[C@H]32)n1 [Example 15, (3aR,11aS)-5-(2-((S)-3-(Hydroxymethyl)-4-methylpiperazin-1-yl)ethyl)-6,10-dimethyl-1-(6-methyl-4-(trifluoromethyl)pyridin-2-yl)-1,3a,4,5,10,11a-hexahydro-2H-benzo[b]pyrrolo[2,3-f][1,4]diazocine-2,11(3H)-dione] | 1.22 nM |
| Cc1cc(C(F)(F)F)cc(N2C(=O)C[C@@H]3CN(CCN4CC[C@@H](C(=O)N(C)C)C4)c4c(C)cccc4N(C)C(=O)[C@H]32)n1 [Example 73, (R)-1-(2-((3aR,11aS)-6,10-Dimethyl-1-(6-methyl-4-(trifluoromethyl)pyridin-2-yl)-2,11-dioxo-1,2,3,3a,4,10,11,11a-octahydro-5H-benzo[b]pyrrolo[2,3-f][1,4]diazocin-5-yl)ethyl)-N,N-dimethylpyrrolidine-3-carboxamide] | 8.12 nM |
| Cc1cc(C(F)(F)F)cc(N2C(=O)C[C@@H]3CN(CCN4CCS(=O)(=O)CC4)c4c(C)cccc4N(C)C(=O)[C@H]32)n1 [Example 68, (3aR,11aS)-5-(2-(1,1-Dioxidothiomorpholino)ethyl)-6,10-dimethyl-1-(6-methyl-4-(trifluoromethyl)pyridin-2-yl)-1,3a,4,5,10,11a-hexahydro-2H-benzo[b]pyrrolo[2,3-f][1,4]diazocine-2,11(3H)-dione] | 1.07 nM |
| COc1ccnc(N2C[C@H]3CC(=O)N(c4cc(C(F)(F)F)cc(C)n4)[C@@H]3C(=O)N(C)c3cccc(F)c32)c1 [Example 140, (3aR,11aS)-6-Fluoro-5-(4-methoxypyridin-2-yl)-10-methyl-1-(6-methyl-4-(trifluoromethyl)pyridin-2-yl)-1,3a,4,5,10,11a-hexahydro-2H-benzo[b]pyrrolo[2,3-f][1,4]diazocine-2,11(3H)-dione] | 79.6 nM |
| Cc1cc(C(F)(F)F)cc(N2C(=O)C[C@@H]3CN(c4ccc5ccn(C)c5n4)c4c(F)cccc4N(C)C(=O)[C@H]32)n1 [Example 143, (3aR,11aS)-6-Fluoro-10-methyl-5-(1-methyl-1H-pyrrolo[2,3-b]pyridin-6-yl)-1-(6-methyl-4-(trifluoromethyl)pyridin-2-yl)-1,3a,4,5,10,11a-hexahydro-2H-benzo[b]pyrrolo[2,3-f][1,4]diazocine-2,11(3H)-dione] | 97 nM |
| Cc1cc(C(F)(F)F)cc(N2C(=O)C[C@@H]3CN(CCO)c4c(F)cccc4N(C)C(=O)[C@H]32)n1 [Example 18, (3aR,11aS)-6-Fluoro-5-(2-hydroxyethyl)-10-methyl-1-(6-methyl-4-(trifluoromethyl)pyridin-2-yl)-1,3a,4,5,10,11a-hexahydro-2H-benzo[b]pyrrolo[2,3-f][1,4]diazocine-2,11(3H)-dione] | 16.7 nM |
| Cc1cc(C(F)(F)F)cc(N2C(=O)C[C@@H]3CN(CCN4CCN(C)CC4)c4ccccc4N(C)C(=O)[C@H]32)n1 [Example 13, (3aR,11aS)-10-Methyl-1-(6-methyl-4-(trifluoromethyl)pyridin-2-yl)-5-(2-(4-methylpiperazin-1-yl)ethyl)-1,3a,4,5,10,11a-hexahydro-2H-benzo[b]pyrrolo[2,3-f][1,4]diazocine-2,11(3H)-dione dihydrochloride] | 51.1 nM |

Compounds with a lower Ki, results first:

| Ki | SMILES |
| --- | --- |
| 0.622 nM | Cc1cc(C(F)(F)F)cc(N2C(=O)C[C@@H]3CN(CC4CCN(C5COC5)CC4)c4c(Cl)cccc4N(C)C(=O)[C@H]32)n1 [Example 85, (3aR,11aS)-6-Chloro-10-methyl-1-(6-methyl-4-(trifluoromethyl)pyridin-2-yl)-5-((1-(oxetan-3-yl)piperidin-4-yl)methyl)-1,3a,4,5,10,11a-hexahydro-2H-benzo[b]pyrrolo[2,3-f][1,4]diazocine-2,11(3H)-dione] |
| 0.186 nM | Cc1cc(C(F)(F)F)cc(N2C(=O)C[C@@H]3CN(Cc4cn5c(n4)CNCC5)c4c(C)cccc4N(C)C(=O)[C@H]32)n1 [Example 80, (3aR,11aS)-6,10-Dimethyl-1-(6-methyl-4-(trifluoromethyl)pyridin-2-yl)-5-((5,6,7,8-tetrahydroimidazo[1,2-a]pyrazin-2-yl)methyl)-1,3a,4,5,10,11a-hexahydro-2H-benzo[b]pyrrolo[2,3-f][1,4]diazocine-2,11(3H)-dione] |
| 0.969 nM | Cc1cc(C(F)(F)F)cc(N2C(=O)C[C@@H]3CN(CCN4CC[C@H](C(=O)N(C)C)C4)c4c(C)cccc4N(C)C(=O)[C@H]32)n1 [Example 72, (S)-1-(2-((3aR,11aS)-6,10-Dimethyl-1-(6-methyl-4-(trifluoromethyl)pyridin-2-yl)-2,11-dioxo-1,2,3,3a,4,10,11,11a-octahydro-5H-benzo[b]pyrrolo[2,3-f][1,4]diazocin-5-yl)ethyl)-N,N-dimethylpyrrolidine-3-carboxamide] |
| 0.757 nM | Cc1cc(C(F)(F)F)cc(N2C(=O)C[C@@H]3CN(CCN4CC5(CCO5)C4)c4c(C)cccc4N(C)C(=O)[C@H]32)n1 [Example 14, (3aR,11aS)-5-(2-(1-Oxa-6-azaspiro[3.3]heptan-6-yl)ethyl)-6,10-dimethyl-1-(6-methyl-4-(trifluoromethyl)pyridin-2-yl)-1,3a,4,5,10,11a-hexahydro-2H-benzo[b]pyrrolo[2,3-f][1,4]diazocine-2,11(3H)-dione] |
| 0.625 nM | Cc1cc(C(F)(F)F)cc(N2C(=O)C[C@@H]3CN(CCN4CC5CCC(C4)N5C)c4c(C)cccc4N(C)C(=O)[C@H]32)n1 [Example 60, (3aR,11aS)-6,10-Dimethyl-5-(2-(8-methyl-3,8-diazabicyclo[3.2.1]octan-3-yl)ethyl)-1-(6-methyl-4-(trifluoromethyl)pyridin-2-yl)-1,3a,4,5,10,11a-hexahydro-2H-benzo[b]pyrrolo[2,3-f][1,4]diazocine-2,11(3H)-dione dihydrochloride] |
